Assay results from patent publication US20250042873A1, “COMPOSITIONS AND METHODS FOR TREATING PROTEOTOXICITY-ASSOCIATED DISEASES” (priority 2021, published 2025).
“Also recorded” adds a separate entry of the source.

Key:
[1] = Brain penetration and pharmacokinetic studies using mass spectrometry analysis after intraperitoneal administration; format: in vivo; settings: mice; for blood-brain barrier penetration (detection in brain and spinal cord tissues): within minutes after intraperitoneal administration, mass spectrometry
[2] = system: tau protein expressed in human HEK293 cells; experiment: Clearance of tau protein expressed in human HEK293 cells; format: cell-based; settings: FIG. 4B
SOD1G93A ALS mouse model [3] = experiment: Motor performance in the SOD1G93A ALS mouse model (Rotarod behavioral assays); format: in vivo; settings: intraperitoneal injections at the same drug concentration, compared with UNC669, FIG. 3J
Experimental: The effect of UNC669 was tested on one of the most characterized mouse model of proteotoxicity, the SOD1G93A ALS model.
A number of the newly synthesized UNC669 analogs have been tested for their effects on the clearance of misfolded proteins in the cells.

SOD1G93A ALS mouse model [4] = settings: SOD1G93A mice, 17 mg/kg intraperitoneal, weekly from 8 weeks of age, after 12 weeks, FIG. 2B (prior art); cited from earlier work
[5] = system: misfolded mutant SOD1 in the spinal cords; settings: FIG. 2D (prior art), cited from earlier work

| Structure (SMILES) | blood-brain barrier penetration (detection in brain and spinal cord tissues) [1] | clearance / levels of tau protein [2] | effect on improving motor performance (Rotarod) (SOD1G93A ALS mouse model [3]) | motor ability / motor performance of the animals (SOD1G93A ALS mouse model [4]) | neuronal / motor neuron health (CHAT staining) ([5]; SOD1-G93A mice spinal cords) | immunostaining of spinal cords with antibody specific for misfolded proteins ([5]; SOD1-G93A mice) | concentrations in the plasma, brain, or spinal cords ([1]; 3 hours after intraperitoneal administration, FX8 vs FX6 or UNC669, FIG. 3I) |
| --- | --- | --- | --- | --- | --- | --- | --- |
| O=C(c1cncc(Cl)c1)N1CCC(N2CCCC2)CC1 [FX6] | can penetrate the blood-brain barrier | higher efficacy | greater effects on improving the animals' motor performance | – | – | – | – |
| O=C(c1cncc(Br)c1)N1CCC(N2CCCC2)CC1 [UNC669] | – | decrease the levels of tau proteins; also recorded: enhanced clearance of tau protein | – | improvement in the animals' motor performance; also recorded: improves the motor ability of the animals | improved the health of the motor neurons; also recorded: improved neuronal health | reduction of the mutant protein | – |
| N#Cc1cccc(C(=O)N2CCC(N3CCCC3)CC2)n1 [FX8] | can penetrate the blood-brain barrier | higher efficacy | greater effects on improving the animals' motor performance | – | – | – | highest levels of accumulation |
